The nature of series [1]: Dissolution study as a function of the pH value of water. In kind it is physicochemical. Conditions: 150 g in 900 ml of water. The text has this:
The solubility of the mannitol powder was then studied in the following three types of non-carbonated commercial waters: • Sangemini: pH at source 6.2; • Antica Fonte Boario: pH at source 7.0; • Panna Toscana: pH at source 8.0.

Series [2] can be described thus: Bulk density of the powder. It counts as physicochemical. As to conditions: after passing through drum centrifugal sieve shaker, mesh 3 mm clear span; measured in the laboratory. The procedure: As regards the bulk density outlined above, in particular the poured bulk density, such parameter is measured according to the European Pharmacopoeia reference standard (Ph. Eur.), current edition 2.2.42, in force at the priority date of this patent application. In the context of the present invention, the expression ‘bulk’ implies that the powder density value is calculated in a manner formally analogous to an absolute density (such as for a solid body or for a liquid). However, since a powder has empty inter-particle spaces, the total volume occupied by the powder (i.e. its outer bulk), thus including the inter-particle spaces between the various particles, should be taken into account when evaluating bulk density. More precisely, according to the aforementioned regulation, a 100 ml class A graduated flask is filled and brought to volume with the powder particles, after which the bulk density is calculated as the ratio between the weight of the powder contained in the flask and the volume (100 ml) occupied by that weight of the powder particles.

Take `OC[C@@H](O)[C@@H](O)[C@H](O)[C@H](O)CO` [mannitol]: the “time for complete dissolution” value in series [1] (weakly acidic or neutral pH) was “more than 6 minutes”. Further, the “time for complete dissolution relative to weakly acidic or neutral pH” value in series [1] (weakly basic pH) is given as “substantially half as much”. Also, the transient density result in series [2] is reported as “about 0.73 g/ml”.

The values above are taken from patent publication US20220117845A1, “COMPOSITION AND CONTAINER, KIT, METHOD OF USE” (NTC S.R.L., priority 2019, published 2022).
